From US20160237398A1, “METHODS OF MICROBIAL PRODUCTION OF EXCRETED PRODUCTS FROM METHANE AND RELATED BACTERIAL STRAINS” (UNIVERSITY OF WASHINGTON THROUGH ITS CENTER FOR …, priority 2013, published 2016) come the findings set out here.

For assay [1], the system named is pyruvate kinase (pyk2, MALCv4_3080). Description: Effect of effectors on activity of purified recombinant pyruvate kinase. It is filed as biochemical, Methylomicrobium alcaliphilum 20Z. Conditions: for Relative activity: control without effector = 100; for stimulation of enzyme activity: in the presence of the RuMP pathway intermediate. The method, then:
Methanotrophic pyruvate kinase-purification and characterization.
(§1) Protein purification and characterization. Activities of key enzymes of the central metabolic pathways were measured as described. Pyruvate forming activity in cell-free extracts of M. alcaliphilus 20Z was also measured using Pyruvate Assay Kit (BioVision Inc. CA, USA). Recombinant pyruvate kinase PK-ubiqitin-His6 (“His6” disclosed as SEQ ID NO: 7) was obtained by cloning of the pyk2 gene (MALCv4_3080) in the vector pHUE and expressing in E. coli BL21 (DE3) cells growing in the presence of 0.5 mM IPTG for 5 hours at 37° C. PK-ubiqitin-His6 enzyme (“His6” disclosed as SEQ ID NO: 7) was purified by affinity chromatography on a Ni^2+-NTA column as described earlier.

Assay [2] addresses pyruvate kinase 2 from M. alcaliphilum 20Z (Methylotuvimicrobium alcaliphilum, UniProt G4T2L7). It is filed as biochemical, Methylomicrobium alcaliphilum 20Z. The settings on record: in the presence of 2.5 mM ribose-5-phosphate; read-out: S0.5 (used in place of Km, non Michaelis-Menten). On the procedure:
as §1

The test system of the next assay is 20ZER. Description: Accumulation of extracellular metabolites by the culture with an inhibitor of the cyt bc complex. It is filed as cell-based, Methylomicrobium alcaliphilum. The settings on record: 20ZER + antimycin, dO2 ^ 40%. On the procedure: Cultivation and growth parameters. M. alcaliphilum 20Z cells were grown using a mineral salts medium in either closed vials (50 ml culture in 250 ml vials, with shaking at 200 rpm) or bioreactor cultures (fed-batch or chemostat; 1 L working volume in a two liter bench top BioFlo™ 110 modular bioreactors, New Brunswick Scientific, Edison, N.J.). Cells were grown at 28-30° C. Optical density of cell cultures was measured on a Beckman DU® 640B spectrophotometer in plastic 1.5 mL cuvettes with a 1 cm path length. Chemostat cultures maintained a steady-state optical density at 600 nm (OD600) of approximately 2.0±0.2. […] Samples of inflow and outflow gases were either collected daily in triplicates for gas analysis or were analyzed immediately every 15 minutes using a SRI 8610C™ Gas Chromatograph connected to a bioreactor unit. The rates of methane consumption and H2 production were determined by incubating cell samples (50 ml, OD600 between 2 and 4) in closed 250 ml vials for 12-60 h at 28° C. […]

pyruvate kinase 2 from M. alcaliphilum 20Z, sequence (G4T2L7 entry or part of it): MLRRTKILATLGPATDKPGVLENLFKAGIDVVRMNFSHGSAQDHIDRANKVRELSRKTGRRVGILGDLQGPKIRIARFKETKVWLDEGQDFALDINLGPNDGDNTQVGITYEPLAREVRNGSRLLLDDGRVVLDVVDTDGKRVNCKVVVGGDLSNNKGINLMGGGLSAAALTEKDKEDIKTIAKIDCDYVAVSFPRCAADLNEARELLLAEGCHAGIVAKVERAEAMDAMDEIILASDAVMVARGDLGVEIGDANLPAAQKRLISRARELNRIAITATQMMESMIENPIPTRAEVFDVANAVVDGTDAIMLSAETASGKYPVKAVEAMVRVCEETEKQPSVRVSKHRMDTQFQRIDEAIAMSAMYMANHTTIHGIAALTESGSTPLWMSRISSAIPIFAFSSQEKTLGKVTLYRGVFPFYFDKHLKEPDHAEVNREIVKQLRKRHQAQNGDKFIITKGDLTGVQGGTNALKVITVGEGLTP

Consider `O=C(CO)[C@@H](O)[C@H](O)[C@H](O)COP(=O)(O)O` [Fructose-6-phosphate], for which, in assay [1], the “inhibitory effect of ATP, PPi and Pi after addition of the activator” value is on record as “completely abolished”; the “stimulation of enzyme activity” value is listed as 20 fold. Also, in assay [1] (effector 5 mM), the Relative activity is reported as 2518%.

With `O=C(CO)[C@H](O)[C@H](O)COP(=O)(O)O` [Ribulose-5-phosphate], the Relative activity in assay [1] (effector 5 mM) is 1890%. In addition, the “stimulation of enzyme activity” value in assay [1] came out at 20 fold. Regarding `O=P(O)(O)O` [Pi, inorganic phosphate], the “effect on enzyme activity” value in assay [1] is given as “strongly inhibited”. For the same molecule, the Relative activity in assay [1] (effector 6 mM) is reported as 11%. In the case of `O=P(O)(O)O[C@H]1O[C@H](CO)[C@@H](O)[C@H](O)[C@H]1O` [Glucose-1-phosphate], the Relative activity in assay [1] (effector 5 mM) came out at 67%. On to `O=C(O)CC(O)(CC(=O)O)C(=O)O` [Citrate], for which the Relative activity in assay [1] (effector 1 mM) stood at 140%. On to `Nc1ncnc2c1ncn2[C@@H]1O[C@H](COP(=O)(O)O)[C@@H](O)[C@H]1O` [AMP], for which, in assay [1] (effector 2 mM), the Relative activity was determined as 126%. Regarding `O=C(COP(=O)(O)O)[C@@H](O)[C@H](O)[C@H](O)CO` [Fructose-1-phosphate], the Relative activity in assay [1] (effector 5 mM) was 270%. As to `O=C(O)CC(O)C(=O)O` (centres unmarked) [Malate], the Relative activity in assay [1] (effector 1 mM) was 82%. Consider `O=P(O)(O)O[C@H]1O[C@H](CO)[C@@H](O)[C@H]1O` [Ribose-1-phosphate], for which, in assay [1] (effector 5 mM), the Relative activity is recorded as 92%. As for `O=P(O)(O)OP(=O)(O)O` [PPi, pyrophosphate], the “effect on enzyme activity” value in assay [1] is “strongly inhibited”. For the same molecule, the Relative activity in assay [1] (effector 2 mM) was 14%. Consider `O=C[C@H](O)[C@H](O)COP(=O)(O)O` [Erythrose-4-phosphate], for which the Relative activity in assay [1] (effector 5 mM) is recorded as 740%. Further, the “stimulation of enzyme activity” value in assay [1] came out at 20 fold. For the molecule `Nc1ncnc2c1ncn2[C@@H]1O[C@H](COP(=O)(O)OP(=O)(O)OP(=O)(O)O)[C@@H](O)[C@H]1O` [ATP], the “effect on enzyme activity” value in assay [1] is given as “strongly inhibited”. Moreover, the Relative activity was determined as 64% in assay [1] (effector 0.5 mM), 32% in assay [1] (effector 1 mM) and 12% in assay [1] (effector 2 mM). In general, Km refers to the substrate concentration at which the rate is half of its maximum. On to `[Cl-].[Cl-].[Mg+2]` [MgCl2], for which the Km in assay [2] worked out at 1990 µM. Take `O=C(O)[C@@H](CO)OP(=O)(O)O` [2-phosphoglycerate]: the Relative activity in assay [1] (effector 2 mM) came out at 75%. Take `O=C[C@H](O)[C@H](O)[C@H](O)COP(=O)(O)O` [Ribose-5-phosphate]: in assay [1], the “inhibitory effect of ATP, PPi and Pi after addition of the activator” value is listed as “completely abolished”; the “stimulation of enzyme activity” value came to 20 fold. The Relative activity in assay [1] (effector 5 mM) is given as 2092%. In the case of `N[C@@H](CO)C(=O)O` [Serine], the Relative activity in assay [1] (effector 1 mM) is 133%.

Take `O=C(COP(=O)(O)O)[C@@H](O)[C@H](O)[C@H](O)COP(=O)(O)O` [Fructose-1,6-bisphosphate]: the Relative activity in assay [1] (effector 5 mM) amounted to 158%. With `O=C[C@H](O)[C@@H](O)[C@H](O)[C@H](O)COP(=O)(O)O` [Glucose-6-phosphate], the Relative activity in assay [1] (effector 5 mM) was determined as 2545%. Besides, in assay [1], the “stimulation of enzyme activity” value came to 20 fold. With antimycin A, in the assay on 20ZER, the “Accumulation of extracellular Acetate” value was found to be 3955 ± 230 μmol L^−1 g^−1 CDW and the “Accumulation of extracellular Lactate” value came to 437 ± 30 μmol L^−1 g^−1 CDW.
